Experimental data published in US20260118350A1, “Fluorescent Probes for Peroxidase-Mediated Fluorescent Signal Amplification” (Seoul National University R&DB Foundation, priority 2024, published 2026).

Experiments:
[1] = system: HeLa cells transiently expressing TMEM192-V5-APEX2; assay: Lysosome diameter and lysosome-mitochondria contact under lysosomal stressors (JFT1 labeling by TMEM192-V5-APEX2); assay type: cell-based, Human; conditions: for fold increase of lysosomal diameter vs DMSO treatment / mean lysosomal diameter: BFA 100 nM or U18666A 2 μg/ml, 18 h; for mitochondria-lysosome co-localization: HeLa cells co-expressing mito-mEosEM and TMEM192-V5-APEX2; for mean lysosomal diameter: mean (±SEM)
Description: Fluorescently labeled lysosome (JFT1-labeled or Lysotracker Red, RFP channel) and mitochondria (mito-mEosEM, GFP channel) area were analyzed using Fiji/ImageJ (National Institutes of Health, USA). Area corresponding to the colocalization of lysosome-mitochondria were delimited manually by thresholding keeping the same threshold for control. The colocalized area was measured for 5 cells in each group. To measure lysosome diameter, we utilized Fiji/ImageJ. Initially, the images were converted to 8-bit and the pixel measurements were calibrated using a scale bar. Circular lysosomes were then selected and a line representing the diameter of each selected lysosome was drawn, referencing the limiting membrane according to the JFT1 fluorescence signal. Subsequently, we utilized the “analyze and measure” feature of ImageJ, which generates a table with various parameters such as area and length. To convert the length from pixels to micrometers, we applied the following formula: (pixel diameter/pixels on the scale bar)×10 μm. Once the values were converted, they were plotted and statistical analysis for unpaired t-test was performed using Prism GraphPad software ([…] et al., 2021). HeLa cells transiently expressing TMEM192-V5-APEX2 were plated on coverslips (thickness no. 1.5, radius 18 mm). The cells were then treated with DMSO or U18666A (2 ug/ml), Bafilomycin A1 (100 nM) in DMEM for 18 h at 37° C. and washed three times with cold DPBS. The cells were fixed in 4% paraformaldehyde for 15 min at room temperature. Next, JFT1 labeling was done using 100 μM of the probe and 1 mM H2O2 for 5 min. Reaction was quenched and cells were permeabilized for immunofluorescence imaging with cold methanol for 5 min at -20° C., followed by washing with DPBS and blocking for 1 h with 2% bovine serum albumin in DPBS at room temperature.

TOM20-V5-APEX2 = assay: Live-cell APEX labeling using JF probes; assay type: cell-based, Human; conditions: 5 min pre-incubation, 1 mM H2O2 1 min, TOM20-V5-APEX2-expressing cells
Description: To visualize various APEX2-POIs in live cells, JF or JFA (50-100 μM) and 1 mM H2O2 were treated to APEX2-POI expressing cells during the live stage. After treatment, cells were washed thrice with DPBS and then fixed with 4% PFA in 1×DPBS for 15 minutes at room temperature. For immuno-fluorescence imaging, cells were permeabilized with −20° C. methanol for 5 minutes, followed by the standard immunofluorescence staining protocol. To detect JF or JFA fluorescence and immunofluorescence, we used the GFP channel (excitation at 488 nm), RFP channel (excitation at 561 nm), and Cy5 channel (excitation at 647 nm) of a confocal light microscope (FV3000, Olympus, Japan). HeLa cells were used for imaging experiments.
Further, the APEX reaction in live cells utilizing the JF probes in cells expressing TOM20-V5-APEX2 at the cytosolic face of the outer mitochondrial membrane (OMM) were examined. Each JF probe (JF, JFA, JFT1, JFT2, and JFT3) was pre-incubated with the cells for 5 min, followed by the addition of 1 mM H2O2 and incubation for 1 min to activate the peroxidase.

endogenous peroxidases = assay: Reaction with endogenous peroxidases in live cells; assay type: cell-based; conditions: high concentrations (≥100 μM) for 1 h in live cells
Description: However, our focus was on utilizing JFT for CLEM imaging under fixed conditions. For live-cell APEX2 labeling experiments, JF or JFA (50-100 μM) was incubated with 1 mM H2O2 for 1 min. Both JF and JFA are cell-permeable and can react with APEX2 under live-cell conditions. […] We observed that a 5-min incubation of high concentrations of JFT1 ([…]) and H2O2 (0.5-1 mM) can generate selective FLEX labeling where APEX2-POIs are expressed (see Methods for details). For live-cell experiments, it would be highly advantageous to further develop JF probes with negligible activity against endogenous peroxidase in live-cell conditions while still maintaining reactivity for the APEX or HRP reaction. Since JFT was synthesized from JFA, this strategy opens up the possibility of generating further variations in JFT or other JF-based probes using various azido-click moieties. This approach could lead to the development of improved probes with enhanced performance for live-cell imaging applications.

HRP = molecular target: T1, HRP (Armoracia rusticana, UniProt P00433); assay: Polymerization of JF catalyzed by HRP; assay type: biochemical, horseradish
T1 sequence (P00433 31-338 limits assumed): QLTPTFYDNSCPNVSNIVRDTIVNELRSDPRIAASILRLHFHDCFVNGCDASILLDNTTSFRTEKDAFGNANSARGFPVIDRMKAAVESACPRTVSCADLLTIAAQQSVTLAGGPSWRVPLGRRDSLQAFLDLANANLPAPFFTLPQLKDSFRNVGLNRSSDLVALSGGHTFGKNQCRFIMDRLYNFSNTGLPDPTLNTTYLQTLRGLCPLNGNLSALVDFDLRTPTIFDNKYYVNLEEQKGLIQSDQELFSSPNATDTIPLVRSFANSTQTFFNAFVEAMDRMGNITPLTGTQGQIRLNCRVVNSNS
Description: JF (400 μM) was prepared by dissolving the powder in DMSO. To induce the polymerization of JF, 10 μM of HRP was added along with 2 mM H2O2. JF-precipitate starts forming after 30 minutes of incubation with HRP and H2O2. This reaction was carried out at room temperature for 24 h to acquire the polymerized JF. The mixture was centrifuged at 15,000 g for 10 min to separate the polymerized JF product from non-reacted JF.

| Structure (SMILES) | fold increase of lysosomal diameter vs DMSO treatment [1] [fold] | mitochondria-lysosome co-localization [1] | mean lysosomal diameter [1] [μm] | fluorescence staining in live cells (TOM20-V5-APEX2) | reactivity with endogenous peroxidases (endogenous peroxidases) | precipitate formation upon HRP-mediated reaction (HRP; HRP and H2O2) | time at which JF-precipitate starts forming (HRP; JF 400 μM, 10 μM HRP, 2 mM H2O2, room temperature) [min] |
| --- | --- | --- | --- | --- | --- | --- | --- |
| CO/C1=C\C(C)=C\[C@@H](C)[C@@H](O)[C@@H](C)C/C(C)=C/C=C/[C@H](OC)[C@@H]([C@@H](C)[C@@H](O)[C@H](C)[C@@]2(O)C[C@@H](O)[C@H](C)[C@@H](C(C)C)O2)OC1=O [Bafilomycin A1] | 2.7 | more merged patterns | 1.20 |  |  |  |  |
| CC[n+]1c(/C=C/c2ccc(O)cc2)sc2ccccc21 [JF, (E)-3-ethyl-2-(4-hydroxystyryl)benzo[d]thiazol-3-ium, reference compound] |  |  |  | red fluorescence stains | can also react with endogenous peroxidases | macroscopic precipitate deposition | 30 |
| C#CC[n+]1c(/C=C/c2ccc(O)cc2)sc2ccccc21 [JFA, (E)-2-(4-hydroxystyryl)-3-(prop-2-yn-1-yl)benzo[d]thiazol-3-ium] |  |  |  | red fluorescence stains | can also react with endogenous peroxidases |  |  |
| CCN(CC)CCO[C@H]1CC[C@@]2(C)C(=CC[C@@H]3[C@@H]2CC[C@]2(C)C(=O)CC[C@@H]32)C1 [U18666A] | 2.2 | enhanced co-localization | 0.87 |  |  |  |  |
